# Laboratory results: PubChem BioAssay AID1918939 (Molecular Pharmacology Branch, DTP, NCI, 2023)
# Values joined by “and” are separate entries in the source; they are usually repeats but may differ in a detail not shown here. Identical values can stand only once.
# System: 653999-131-R-J2-PDC complex spheroid viability
# Test: Anticancer human tumor 653999-131-R-J2-PDC patient-derived lung adenocarcinoma cell line growth inhibition
# Conditions: for viability, T/C: stronger effect = lower value
# Summary of the method: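 Complex spheroids of tumor cells with HUVEC and human MSCs, exposed to iadademstat combined with other agents. Each agent tested in half-log steps from near clinical Cmax (else 10 microM top), DMSO ≤0.25%.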
# [1] = curve of first compound, second compound 0.1 µM
# [2] = curve of first compound, second compound 0.316 µM
# [3] = curve of first compound, second compound 1 µM
# [4] = curve of first compound, second compound 3.16 µM
# [5] = curve of first compound, second compound 10 µM
# [6] = second compound 0.1 µM, first compound 0.00949 µM
# [7] = second compound 0.1 µM, first compound 0.03 µM
# [8] = second compound 0.1 µM, first compound 0.0949 µM
# [9] = second compound 0.1 µM, first compound 0.3 µM
# [10] = second compound 0.316 µM, first compound 0.00949 µM
# [11] = second compound 0.316 µM, first compound 0.03 µM
# [12] = second compound 0.316 µM, first compound 0.0949 µM
# [13] = second compound 0.316 µM, first compound 0.3 µM
# [14] = second compound 1 µM, first compound 0.00949 µM
# [15] = second compound 1 µM, first compound 0.03 µM
# [16] = second compound 1 µM, first compound 0.0949 µM
# [17] = second compound 1 µM, first compound 0.3 µM
# [18] = second compound 3.16 µM, first compound 0.00949 µM
# [19] = second compound 3.16 µM, first compound 0.03 µM
# [20] = second compound 3.16 µM, first compound 0.0949 µM
# [21] = second compound 3.16 µM, first compound 0.3 µM
# [22] = second compound 10 µM, first compound 0.00949 µM
# [23] = second compound 10 µM, first compound 0.03 µM
# [24] = second compound 10 µM, first compound 0.0949 µM
# [25] = second compound 10 µM, first compound 0.3 µM
# [26] = second compound 0.1 µM, first compound 0.0316 µM
# [27] = second compound 0.1 µM, first compound 0.1 µM
# [28] = second compound 0.1 µM, first compound 0.316 µM
# [29] = second compound 0.1 µM, first compound 1 µM
# [30] = second compound 0.1 µM, first compound 3.16 µM
# [31] = second compound 0.1 µM, first compound 10 µM
# [32] = second compound 0.316 µM, first compound 0.0316 µM
# [33] = second compound 0.316 µM, first compound 0.1 µM
# [34] = second compound 0.316 µM, first compound 0.316 µM
# [35] = second compound 0.316 µM, first compound 1 µM
# [36] = second compound 0.316 µM, first compound 3.16 µM
# [37] = second compound 0.316 µM, first compound 10 µM
# [38] = second compound 1 µM, first compound 0.0316 µM
# [39] = second compound 1 µM, first compound 0.1 µM
# [40] = second compound 1 µM, first compound 0.316 µM
# [41] = second compound 1 µM, first compound 1 µM
# [42] = second compound 1 µM, first compound 3.16 µM
# [43] = second compound 1 µM, first compound 10 µM
# [44] = second compound 3.16 µM, first compound 0.0316 µM
# [45] = second compound 3.16 µM, first compound 0.1 µM
# [46] = second compound 3.16 µM, first compound 0.316 µM
# [47] = second compound 3.16 µM, first compound 1 µM
# [48] = second compound 3.16 µM, first compound 3.16 µM
# [49] = second compound 3.16 µM, first compound 10 µM
# [50] = second compound 10 µM, first compound 0.0316 µM
# [51] = second compound 10 µM, first compound 0.1 µM
# [52] = second compound 10 µM, first compound 0.316 µM
# [53] = second compound 10 µM, first compound 1 µM
# [54] = second compound 10 µM, first compound 3.16 µM
# [55] = second compound 10 µM, first compound 10 µM
# 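Also: spheroids exposed to agents for seven days before readout.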
compound,measurement,setting,value
COc1cc(C2c3cc4c(cc3C(OC3OC5COC(C)OC5C(O)C3O)C3COC(=O)C23)OCO4)cc(OC)c1O (stereo unspecified) + NC1CC1c1ccc(-c2cccc(O)c2)cc1,IC50,[1],166 nM
same,IC50,[2],135 nM
same,IC50,[3],110 nM
same,IC50,[4],97.6 nM
same,IC50,[5],248 nM
same,"viability, T/C",[6],83.5%
same,"viability, T/C",[7],67.2%
same,"viability, T/C",[8],57.9%
same,"viability, T/C",[9],41.4%
same,"viability, T/C","second compound 0.1 µM, first compound 0.949 µM",37%
same,"viability, T/C","second compound 0.1 µM, first compound 3 µM",27.8%
same,"viability, T/C",[10],75.4%
same,"viability, T/C",[11],62.9%
same,"viability, T/C",[12],50.3%
same,"viability, T/C",[13],45.9%
same,"viability, T/C","second compound 0.316 µM, first compound 0.949 µM",34.8%
same,"viability, T/C","second compound 0.316 µM, first compound 3 µM",25.2%
same,"viability, T/C",[14],75.7%
same,"viability, T/C",[15],64%
same,"viability, T/C",[16],51.8%
same,"viability, T/C",[17],38.3%
same,"viability, T/C","second compound 1 µM, first compound 0.949 µM",35.9%
same,"viability, T/C","second compound 1 µM, first compound 3 µM",26.1%
same,"viability, T/C",[18],77.3%
same,"viability, T/C",[19],66.2%
same,"viability, T/C",[20],49.4%
same,"viability, T/C",[21],39.5%
same,"viability, T/C","second compound 3.16 µM, first compound 0.949 µM",32.8%
same,"viability, T/C","second compound 3.16 µM, first compound 3 µM",30.5%
same,"viability, T/C",[22],73%
same,"viability, T/C",[23],65.9%
same,"viability, T/C",[24],61.5%
same,"viability, T/C",[25],46.3%
same,"viability, T/C","second compound 10 µM, first compound 0.949 µM",39%
same,"viability, T/C","second compound 10 µM, first compound 3 µM",31.1%
CCc1c2c(nc3ccc(O)cc13)-c1cc3c(c(=O)n1C2)COC(=O)[C@]3(O)CC + NC1CCC(NC2CC2c2ccccc2)CC1,IC50,[1],< 0.949 nM
same,IC50,[2],< 0.949 nM
same,IC50,[3],< 0.949 nM
same,IC50,[4],< 0.949 nM
same,IC50,[5],< 0.949 nM
same,"viability, T/C","second compound 0.1 µM, first compound 0.000949 µM",22%
same,"viability, T/C","second compound 0.1 µM, first compound 0.003 µM",13.8%
same,"viability, T/C",[6],11.8%
same,"viability, T/C",[7],7.96%
same,"viability, T/C",[8],5.01%
same,"viability, T/C",[9],5%
same,"viability, T/C","second compound 0.316 µM, first compound 0.000949 µM",19.8%
same,"viability, T/C","second compound 0.316 µM, first compound 0.003 µM",15.9%
same,"viability, T/C",[10],9.62%
same,"viability, T/C",[11],7.91%
same,"viability, T/C",[12],3.58%
same,"viability, T/C",[13],6.63%
same,"viability, T/C","second compound 1 µM, first compound 0.000949 µM",21.6%
same,"viability, T/C","second compound 1 µM, first compound 0.003 µM",15.2%
same,"viability, T/C",[14],9.88%
same,"viability, T/C",[15],7.86%
same,"viability, T/C",[16],4.29%
same,"viability, T/C",[17],4.06%
same,"viability, T/C","second compound 3.16 µM, first compound 0.000949 µM",22.2%
same,"viability, T/C","second compound 3.16 µM, first compound 0.003 µM",17.5%
same,"viability, T/C",[18],12.6%
same,"viability, T/C",[19],7.56%
same,"viability, T/C",[20],4.32%
same,"viability, T/C",[21],3.82%
same,"viability, T/C","second compound 10 µM, first compound 0.000949 µM",25.5%
same,"viability, T/C","second compound 10 µM, first compound 0.003 µM",15.8%
same,"viability, T/C",[22],9.94%
same,"viability, T/C",[23],6.03%
same,"viability, T/C",[24],2.71%
same,"viability, T/C",[25],2.44%
COc1ccc([C@@H](O)c2cc(-c3ncnc4cc(N5CCOCC5)ccc34)c(F)cc2Cl)nn1 + NC1CCC(NC2CC2c2ccccc2)CC1,IC50,[1],1830 nM
same,IC50,[2],1750 nM
same,IC50,[3],2560 nM
same,IC50,[4],2250 nM
same,IC50,[5],1720 nM
same,"viability, T/C",[26],97.4%
same,"viability, T/C",[27],94.9%
same,"viability, T/C",[28],68.8%
same,"viability, T/C",[29],61.5%
same,"viability, T/C",[30],42%
same,"viability, T/C",[31],30.9%
same,"viability, T/C",[32],106%
same,"viability, T/C",[33],85.3%
same,"viability, T/C",[34],74.7%
same,"viability, T/C",[35],60.8%
same,"viability, T/C",[36],39%
same,"viability, T/C",[37],28.1%
same,"viability, T/C",[38],96.5%
same,"viability, T/C",[39],98%
same,"viability, T/C",[40],76.6%
same,"viability, T/C",[41],68.5%
same,"viability, T/C",[42],45.7%
same,"viability, T/C",[43],29.4%
same,"viability, T/C",[44],84.2%
same,"viability, T/C",[45],114%
same,"viability, T/C",[46],78.1%
same,"viability, T/C",[47],65.2%
same,"viability, T/C",[48],46.4%
same,"viability, T/C",[49],31.5%
same,"viability, T/C",[50],108%
same,"viability, T/C",[51],98%
same,"viability, T/C",[52],72%
same,"viability, T/C",[53],57%
same,"viability, T/C",[54],44.6%
same,"viability, T/C",[55],29.4%
CC1COCCN1c1cc(C2(S(C)(=N)=O)CC2)nc(-c2ccnc3[nH]ccc23)n1 (stereo unspecified) + NC1CC1c1ccc(-c2cccc(O)c2)cc1,IC50,[1],> 10000 nM
same,IC50,[2],2110 nM
same,IC50,[3],1580 nM
same,IC50,[4],2650 nM
same,IC50,[5],2260 nM
same,"viability, T/C",[26],99.7%
same,"viability, T/C",[27],100%
same,"viability, T/C",[28],102%
same,"viability, T/C",[29],77.7%
same,"viability, T/C",[30],47.9%
same,"viability, T/C",[31],51.7%
same,"viability, T/C",[32],104%
same,"viability, T/C",[33],95.3%
same,"viability, T/C",[34],92.5%
same,"viability, T/C",[35],62.7%
same,"viability, T/C",[36],42.5%
same,"viability, T/C",[37],40.2%
same,"viability, T/C",[38],83.1%
same,"viability, T/C",[39],98.6%
same,"viability, T/C",[40],83.7%
same,"viability, T/C",[41],57.2%
same,"viability, T/C",[42],39.8%
same,"viability, T/C",[43],36.7%
same,"viability, T/C",[44],90.2%
same,"viability, T/C",[45],108%
same,"viability, T/C",[46],94.5%
same,"viability, T/C",[47],73.2%
same,"viability, T/C",[48],43.9%
same,"viability, T/C",[49],47.1%
same,"viability, T/C",[50],77.2%
same,"viability, T/C",[51],93%
same,"viability, T/C",[52],82.3%
same,"viability, T/C",[53],64%
same,"viability, T/C",[54],41.1%
same,"viability, T/C",[55],47.3%
CCc1c2c(nc3ccc(O)cc13)-c1cc3c(c(=O)n1C2)COC(=O)[C@]3(O)CC,"viability, T/C",compound 0.000949 µM,25.8% and 33.6%
same,"viability, T/C",compound 0.003 µM,18.4% and 20.9%
same,"viability, T/C",compound 0.00949 µM,11.9% and 12.5%
same,"viability, T/C",compound 0.03 µM,7.76% and 6.48%
same,"viability, T/C",compound 0.0949 µM,5.86% and 7.35%
same,"viability, T/C",compound 0.3 µM,5.31% and 11.3%
same,IC50,curve of compound,< 0.949 nM
O=C(c1cc(Cc2n[nH]c(=O)c3ccccc23)ccc1F)N1CCN(C(=O)C2CC2)CC1,"viability, T/C",compound 0.0316 µM,105% and 108%
same,"viability, T/C",compound 0.1 µM,103% and 108%
same,"viability, T/C",compound 0.316 µM,94.7% and 105%
same,"viability, T/C",compound 1 µM,92.7% and 102%
same,"viability, T/C",compound 3.16 µM,79% and 91.8%
same,"viability, T/C",compound 10 µM,68.4% and 69.3%
same,IC50,curve of compound,> 10000 nM
NS(=O)(=O)OCC1CC(n2ccc3c(NC4CCc5ccccc54)ncnc32)CC1O (stereo unspecified),"viability, T/C",compound 0.00949 µM,115% and 114%
same,"viability, T/C",compound 0.03 µM,98.1% and 121%
same,"viability, T/C",compound 0.0949 µM,91.9% and 121%
same,"viability, T/C",compound 0.3 µM,99.7% and 70.9%
same,"viability, T/C",compound 0.949 µM,54.7% and 62.8%
same,"viability, T/C",compound 3 µM,55.3% and 60%
same,IC50,curve of compound,> 3000 nM
